In brackets after ≈: the same amount, converted by molar mass. Where two headings read alike, the source gives them in different places.
What was measured:
[1] = system: Plasmodium falciparum D-6 clone (CDC Sierra Leone I); assay: In vitro antimalarial study, [3H]hypoxanthine uptake, D-6 clone; format: cell-based; conditions: for IC50: Plasmodium falciparum, read-out: IC50 D-6; for IC50 D-6: P. falciparum D-6 clone
Procedure: (§1) B. Antimalarial Activities: (a). In Vitro Antimalarial Studies. The in vitro assays were conducted by using a modification of the semiautomated microdilution technique of Desjardins et al and Chulay et al.. Four P. falciparum malaria parasite clones, from CDC Indochina III (W-2), CDC Sierra Leone I (D-6), Southeast Asia Isolates (TM91C235) and RCS (Isolates from Brazil) were utilized in susceptibility testing. They were derived by direct visualization and micromanipulation from patient isolates. The W-2 clone is susceptible to mefloquine but resistant to chloroquine, sulfadoxine, pyrimethamine, and quinine, whereas the D-6 clone is naturally resistant to mefloquine but susceptible to chloroquine, sulfadoxine, pyrimethamine and quinine. Test compounds were initially dissolved in DMSO and diluted 400 fold in RPMI 1640 culture medium supplemented with 25 mM Hepes, 32 mM NaHCO3 and 10% Albumax I (Gibco BRL, Grand Island, N.Y.). These solutions were subsequently serially diluted two-fold with a Biomek 1000 (Beckman, Fullerton, Calif.) over 11 different concentrations. The parasites were exposed to serial dilutions of each compound for 48 hrs and incubated at 37° C. with 5% O2, 5% CO2 and 90% N2 prior to the addition of [^3H]hypoxanthine. After a further incubation of 18 hrs, parasite DNA was harvested from each microtiter well using Packard Filtermate 196 Harvester (Meriden, Conn.) onto glass filters. Uptake of [^3H]hypoxanthine was measured with a Packard Topcount Scintillation. Concentration-response data were analyzed by a non-linear regression logistic dose response model and the IC50 values (50% inhibitory concentrations) for each compound were calculated. (Table 3). (b). In Vivo Antimalarial Studies against P. berghei in mice: The in vivo efficacy of the artelinic acid analogs were determined in a modified Thompson test. This test measures the survivability of mice and parasitemia clearance following administration of drug on days 3-5 post infection. In brief, 5×10^6 P. berghei-infected erythrocytes (KBG-173 strain) were inoculated intraperitoneally to female mice that weighed 24-30 g. By day three post-infection, parasitemia ranged from 1.0-3.7%. Each drug, dissolved in 5% sodium bicarbonate, was administered PO twice daily from day 3-5 post-infection. Total doses for each drug ranged from 1.5-384 mg/kg with 8 mice included in each dosage group. The percent suppression of parasitemia in the treated mice compared to the untreated controls was determined for each test compound; the SD-50 (fifty percent suppression dose) and SD-90 were determined from a non-linear regression logistic dose response fit at day 6 parasitemia data. Survival of mice to day 60 post-infection was considered a cure (C). Compounds were considered active (A) when the survival time of the treated mice was greater than twice the control mice, i.e., 12-14 day (Table 4-5). (c). Sporozoite Induced Test Each compound is ground with a mortar & pestle and suspended in 0.5% hydroxyethylcellulose—0.1% Tween 80 for compounds to be administered PO and those given SC are suspended in peanut oil. Each compound is prepared at 3 different dose levels as requested by WRAIR. Compounds are administered either PO or SC to mice once 4 hr before inoculation of sporozoites. Four-week-old male CD-1 mice, purchased from Charles River and weighing 16-17 g, are placed 5 per cage and allowed to acclimate for 4 days before being treated and then inoculated with sporozoites. They are fed food and water ad-lib and maintained at 76° F. with 12 hr light and 12 hr darkness. The cages and water bottles are changed biweekly. The mice are weighed on Days 0, 3 and 6 then biweekly when blood films are taken. Plasmodium yoelii (17×) is used to infect mice that will be used to infect the mosquitoes. Mice are given a single dose of test compound 4 hr before being inoculated intraperitoneally with 2.5×10^5 sporozoites of Plasmodium yoelii on Day 0. […]

[2] = system: Plasmodium falciparum W-2 clone (CDC Indochina III); assay: In vitro antimalarial study, [3H]hypoxanthine uptake, W-2 clone; format: cell-based; conditions: for IC50: Plasmodium falciparum, read-out: IC50 W-2; for IC50 W-2: P. falciparum W-2 clone
Procedure: as §1

[3] = system: Plasmodium falciparum RCS (Isolates from Brazil); assay: In vitro antimalarial study, [3H]hypoxanthine uptake, RCS clone; format: cell-based; conditions: P. falciparum RCS clone
Procedure: as §1

[4] = system: Plasmodium falciparum TM91C235 (Southeast Asia Isolates); assay: In vitro antimalarial study, [3H]hypoxanthine uptake, TM91C235 clone; format: cell-based; conditions: for IC50 TM91C235: P. falciparum TM91C235 clone
Procedure: as §1

[5] = system: Plasmodium berghei; assay: Antimalarial activity against Plasmodium berghei in mice by subcutaneous injection; format: in vivo
[6] = system: Plasmodium berghei (KBG-173 strain); format: in vivo; conditions: mice, oral
Procedure: as §1

[7] = Death rates after single intragastric treatment in rats; format: in vivo; conditions: for Day of Death: number of deaths: rats
[8] = Solubility in common organic solvents and water; format: physicochemical
[9] = system: P. falciparum; conditions: background, reported; cited from earlier work
[10] = system: P. berghei; conditions: rodent model; cited from earlier work
[11] = mice; cited from earlier work
[12] = Aotus monkey; cited from earlier work
[13] = system: D-6, RCS, W-2 and TM91C235 clones of Plasmodium falciparum; assay: In vitro tests against D-6, RCS, W-2 and TM91C235 clones; format: cell-based; conditions: sensitive and drug resistant P. falciparum cell lines
Procedure: B. Antimalarial Activities: (a). In Vitro Antimalarial Studies. The in vitro assays were conducted by using a modification of the semiautomated microdilution technique of Desjardins et al and Chulay et al.. Four P. falciparum malaria parasite clones, from CDC Indochina III (W-2), CDC Sierra Leone I (D-6), Southeast Asia Isolates (TM91C235) and RCS (Isolates from Brazil) were utilized in susceptibility testing. They were derived by direct visualization and micromanipulation from patient isolates. […] Uptake of [^3H]hypoxanthine was measured with a Packard Topcount Scintillation. Concentration-response data were analyzed by a non-linear regression logistic dose response model and the IC50 values (50% inhibitory concentrations) for each compound were calculated. […] In Vivo Antimalarial Studies against P. berghei in mice: The in vivo efficacy of the artelinic acid analogs were determined in a modified Thompson test. […] The percent suppression of parasitemia in the treated mice compared to the untreated controls was determined for each test compound; the SD-50 (fifty percent suppression dose) and SD-90 were determined from a non-linear regression logistic dose response fit at day 6 parasitemia data. […]

In the case of `Nc1nc(N)c2c(ccc3c2ccn3Cc2ccccc2C(F)(F)F)n1` [Compound 1, 7-[(2-Trifluoromethyl-phenyl)methyl]-7H-pyrrolo[3,2-f]quinazoline-1,3-diamine, reference compound], the IC50 [1] is reported as 0.0191 ng/mL (≈ 0.0535 nM), the IC50 [2] is reported as 0.445 ng/mL (≈ 1.25 nM) and the IC50 ([3]; Plasmodium falciparum) is reported as 0.357 ng/mL (≈ 0.999 nM). The IC50 ([4]; Plasmodium falciparum, read-out: IC50 TM91C235) was 1.22 ng/mL (≈ 3.41 nM), the “# Mice Alive Day 31/Total” value ([5]; 20 mg/kg/day) was 5/7 and the “# Mice Alive Day 31/Total” value ([5]; 40 mg/kg/day) was 0/7. The “# Mice Alive Day 31/Total” value ([5]; 10-2.5 mg/kg/day) was 7/7, the “# Mice Dead/Day Died” value ([5]; 10-2.5 mg/kg/day) was “none” and the “# Mice Alive Day 30/Total” value ([6]; 40 mg/kg/day) was 4/5. The “# Mice Dead/Day Died” value ([6]; 40 mg/kg/day) was 1/17, the “# Mice Alive Day 30/Total” value ([6]; 20-1.25 mg/kg/day) was 5/5 and the “# Mice Dead/Day Died” value ([6]; 20-1.25 mg/kg/day) was “none”. For the same compound, the Deaths ([7]; rats n=4, single intragastric 25 mg/kg in 1% CMC suspension) was 0/4, the Deaths ([7]; rats n=4, single intragastric 50 mg/kg in 1% CMC suspension) was 0/4 and the Deaths ([7]; rats n=4, single intragastric 100 mg/kg in 1% CMC suspension) was 0/4. The Deaths ([7]; rats n=4, single intragastric 200 mg/kg in 1% CMC suspension) was 1/4, the Deaths ([7]; rats n=4, single intragastric 400 mg/kg in 1% CMC suspension) was 3/4 and the “Day of Death: number of deaths” value ([7]; 200 mg/kg, fourth cell after Deaths (day uncertain)) was 1. For the same compound, the “Day of Death: number of deaths” value ([7]; 400 mg/kg, second cell after Deaths (day uncertain)) was 1, the “Day of Death: number of deaths” value ([7]; 400 mg/kg, third cell after Deaths (day uncertain)) was 2 and the solubility [8] was “sparingly soluble”. The “IC50 against P. falciparum in vitro” value [9] was ~0.01 ng/mL (≈ 0.028 nM), the “100% curative oral dose against P. berghei” value [10] was <0.1 to 4 mg/kg and the “subcutaneous LD50” value [11] was “less than 20 mg/kg”. For the same compound, the “dose producing deaths / oral lethal dose” value [12] was “less than 2 mg/kg”.

For `CCOC(=O)Nc1nc(N)nc2ccc3c(ccn3Cc3ccccc3C(F)(F)F)c12` [Compound 2a], the “IC50 D-6” value [1] was 20.709 ng/mL (≈ 48.2 nM), the “IC50 W-2” value [2] was >250 ng/mL and the “IC50 RCS” value [3] was >250 ng/mL. For the same compound, the “IC50 TM91C235” value [4] was >250 ng/mL, the “# Mice Alive Day 31/Total” value ([5]; 40 mg/kg/day) was 5/7 and the “# Mice Dead/Day Died” value ([5]; 40 mg/kg/day) was 2/17. For the same compound, the “# Mice Alive Day 31/Total” value ([5]; 20-2.5 mg/kg/day) was 7/7, the “# Mice Dead/Day Died” value ([5]; 20-2.5 mg/kg/day) was “none” and the “# Mice Dead/Day Died” value ([6]; 40-2.5 mg/kg/day) was “Death in each dose”.

In the case of `CC(C)(C)OC(=O)N(C(=O)OC(C)(C)C)c1nc(N)nc2ccc3c(ccn3Cc3ccccc3C(F)(F)F)c12` [Compound 2h], the “IC50 D-6” value [1] is reported as 0.2549 ng/mL (≈ 0.457 nM), the “IC50 W-2” value [2] is reported as 3.6678 ng/mL (≈ 6.58 nM) and the “IC50 RCS” value [3] is reported as 5.2370 ng/mL (≈ 9.39 nM). The “IC50 TM91C235” value [4] was 26.366 ng/mL (≈ 47.3 nM), the “# Mice Alive Day 31/Total” value ([5]; 40-2.5 mg/kg/day) was 7/7 and the “# Mice Dead/Day Died” value ([5]; 40-2.5 mg/kg/day) was “none”. For the same compound, the “# Mice Alive Day 30/Total” value ([6]; 1.25 mg/kg/day) was 2/5, the “# Mice Alive Day 30/Total” value ([6]; 80-2.5 mg/kg/day) was 5/5 and the “# Mice Dead/Day Died” value ([6]; 80-2.5 mg/kg/day) was “None”.

With `CCN(CC)c1nc(N(CC)CC)c2c(ccc3c2ccn3Cc2ccccc2C(F)(F)F)n1` [Compound 5, 1,3-bis-(diethylamino)-7-(2-trifluromethyl)benzyl-7H-pyrrolo[3,2-f]quinazoline] the IC50 [1] was 46 ng/mL (≈ 98 nM), the IC50 [2] was 104 ng/mL (≈ 222 nM) and the “oral dose range giving 100% cure against P. berghei” value ([6]; Thompson test) was 10 to 80 mg/kg. For the same compound, the “# Mice Alive Day 30/Total” value ([6]; 160 mg/kg/day) was 4/8, the “# Mice Alive Day 30/Total” value ([6]; 80-10 mg/kg/day) was 8/8 and the “# Mice Dead/Day Died” value ([6]; 80-10 mg/kg/day) was “none”. For the same compound, the “in vitro activity relative to lead compound 1” value [13] was “over ten thousand fold less active”.

— patent publication US7253177B2, “Synthesis and antimalarial activity of pyrrolo[3,2-f]quinazoline-1,3-diamine derivatives” (United States of America as Represented by the Secretary of …, priority 2004, dated 2007)
